Activity calls are given as the source filed them. No cut-off for these calls is given here. Non-standard residues stand in square brackets, D forms with d. Residues, ends and D or L forms follow the SMILES beside them. 2Thi = N[C@@H](Cc1cccs1)C(=O)O; pGlu = O=C1CC[C@@H](C(=O)O)N1; Phg = N[C@H](C(=O)O)c1ccccc1; Pip = O=C(O)[C@@H]1CCCCN1; Nva = CCC[C@H](N)C(=O)O

Data set [1] concerns the target T1, Thyrotropin releasing hormone degrading enzyme (Sus scrofa) (UniProt A0A287AP33). As to the kind of experiment: Inhibition of pig brain TRH-DE at 1 mM using Glp-His-ProAMC as substrate by DPP-4-based continuous fluorometric method.
For data set [2], the target named is T1, Thyrotropin releasing hormone degrading enzyme (Sus scrofa). As to the kind of experiment: Substrate activity at pig brain TRH-DE assessed as retention time at 1 mM incubated for 18 hrs by HPLC analysis.
Data set [3] has the same target. As to the kind of experiment: Substrate activity at pig brain TRH-DE assessed as rate of hydrolysis at 1 mM incubated for 18 hrs by HPLC analysis.
For data set [4] the target is unchanged. As to the kind of experiment: Substrate activity at pig brain TRH-DE assessed as Vmax to Km ratio.
The target in data set [5] is Thyrotropin releasing hormone degrading enzyme (Sus scrofa, UniProt A0A287AP33). As to the kind of experiment: Inhibition of pig brain TRH-DE using Glp-His-ProAMC as substrate by DPP-4-based continuous fluorometric method.
Data set [6] addresses T1, Thyrotropin releasing hormone degrading enzyme (Sus scrofa). As to the kind of experiment: Reversible inhibition of pig brain TRH-DE using Glp-His-ProAMC as substrate at 400 uM preincubated for 75 mins by DPP-4-based continuous fluorometric method.
Substrate in data set [7]: NC(=O)[C@@H]1CCCN1C(=O)[C@H](Cc1ccccc1)NC(=O)[C@@H]1CCC(=O)N1
As to the kind of experiment: (§1) Substrate activity at pig brain TRH-DE assessed as Km by discontinuous fluorometric method. The following applies: Sus scrofa.

Substrate in data set [8]: O=C1CC[C@@H](C(=O)N[C@@H](Cc2cnc[nH]2)C(=O)N2CCC[C@H]2C(=O)O)N1
Described as §1. The following applies: Sus scrofa.

Substrate in data set [9]: Cc1cc(=O)oc2cc(NC(=O)[C@@H]3CCCN3C(=O)[C@H](Cc3cnc[nH]3)NC(=O)[C@@H]3CCC(=O)N3)ccc12
Described as §1. The following applies: Sus scrofa.

Substrate in data set [10]: NC(=O)[C@@H]1CCCN1C(=O)[C@H](Cc1ccc(O)cc1)NC(=O)[C@@H]1CCC(=O)N1
Described as §1. The following applies: Sus scrofa.

Substrate in data set [11]: NC(=O)[C@@H]1CCCN1C(=O)[C@H](Cc1cccs1)NC(=O)[C@@H]1CCC(=O)N1
Described as §1. Particulars: Sus scrofa.

Substrate in data set [12]: NC(=O)[C@@H]1CCCN1C(=O)[C@H](Cc1c[nH]cn1)NC(=O)[C@@H]1CCC(=O)N1
Described as §1. The following applies: Sus scrofa.

Substrate in data set [13]: NC(=O)[C@@H]1CCCN1C(=O)[C@H](Cc1ccccc1)NC(=O)[C@@H]1CCC(=O)N1
As to the kind of experiment: (§2) Substrate activity at pig brain TRH-DE assessed as Vmax after 18 hrs by HPLC analysis. The following applies: Sus scrofa.

Substrate in data set [14]: O=C1CC[C@@H](C(=O)N[C@@H](Cc2cnc[nH]2)C(=O)N2CCC[C@H]2C(=O)O)N1
Described as §2. Particulars: Sus scrofa.

Substrate in data set [15]: Cc1cc(=O)oc2cc(NC(=O)[C@@H]3CCCN3C(=O)[C@H](Cc3cnc[nH]3)NC(=O)[C@@H]3CCC(=O)N3)ccc12
The description is as §2. The following applies: Sus scrofa.

Substrate in data set [16]: NC(=O)[C@@H]1CCCN1C(=O)[C@H](Cc1ccc(O)cc1)NC(=O)[C@@H]1CCC(=O)N1
The data set is described as §2. The following applies: Sus scrofa.

Substrate in data set [17]: NC(=O)[C@@H]1CCCN1C(=O)[C@H](Cc1cccs1)NC(=O)[C@@H]1CCC(=O)N1
The description is as §2. Particulars: Sus scrofa.

Substrate in data set [18]: NC(=O)[C@@H]1CCCN1C(=O)[C@H](Cc1c[nH]cn1)NC(=O)[C@@H]1CCC(=O)N1
The description is as §2. Particulars: Sus scrofa.

Broadly, the inhibition is how much of the control response was suppressed. Regarding `NC(=O)[C@@H]1CCCN1C(=O)[C@@H](NC(=O)[C@@H]1CCC(=O)N1)c1ccccc1` ([pGlu]-[Phg]-Pro-NH2), the inhibition in data set [1] came out at 57%.

`COc1cccc(NC(=O)[C@@H]2CCCN2C(=O)[C@H](CC(N)=O)NC(=O)[C@@H]2CCC(=O)N2)c1`: the Retention time in data set [2] was 15.9 min.

In the case of `CC(C)C[C@H](NC(=O)[C@@H]1CCC(=O)N1)C(=O)N1CCC[C@H]1C(N)=O` ([pGlu]-Leu-Pro-NH2), the Activity in [3] came to 0.14 U/mg.

For the molecule `NC(=O)[C@@H]1CCCN1C(=O)CNC(=O)[C@@H]1CCC(=O)N1` ([pGlu]-Gly-Pro-NH2), in data set [1], the inhibition turned out to be 8%.

Regarding `Cc1cc(=O)oc2cc(NC(=O)[C@@H]3CCCN3C(=O)[C@H](Cc3cnc[nH]3)NC(=O)[C@@H]3CCC(=O)N3)ccc12`, in data set [4], the Vmax/Km is 0.04 U/mg/µM.

As to `NCCCC[C@H](NC(=O)[C@@H]1CCC(=O)N1)C(=O)N1CCC[C@H]1C(N)=O` ([pGlu]-Lys-Pro-NH2), the Activity in data set [3] was found to be 0.46 U/mg.

For the molecule `O=C1CC[C@@H](C(=O)N[C@@H](Cc2cnc[nH]2)C(=O)N2CCC[C@H]2C(=O)O)N1`, in data set [4], the Vmax/Km came out at 0.01 U/mg/µM. Further, the Activity in data set [3] stood at 3.38 U/mg.

For `NC(=O)[C@@H]1CCCN1C(=O)[C@H](Cc1ccc(O)cc1)NC(=O)[C@@H]1CCC(=O)N1` ([pGlu]-Tyr-Pro-NH2), the Vmax/Km in [4] turned out to be 0.05 U/mg/µM. In addition, the Activity in [3] amounted to 0.66 U/mg.

With `C[C@@H](O)[C@H](NC(=O)[C@@H]1CCC(=O)N1)C(=O)N1CCC[C@H]1C(N)=O` ([pGlu]-Thr-Pro-NH2), the Activity in [3] came out at 0.14 U/mg.

Molecule `NC(=O)[C@@H]1CCCN1C(=O)[C@@H]1CCCCN1C(=O)[C@@H]1CCC(=O)N1` ([pGlu]-[Pip]-Pro-NH2) had an inhibition in [1] of 40%.

Turning to `CCC[C@H](NC(=O)[C@@H]1CCC(=O)N1)C(=O)N1CCC[C@H]1C(N)=O` ([pGlu]-[Nva]-Pro-NH2), the Activity in [3] amounted to 0.04 U/mg.

Usually Ki stands for a measure of affinity in units of concentration, obtained from inhibition or displacement. Read a low Ki as tighter binding. In the case of `NC(=O)C[C@H](NC(=O)[C@@H]1CCC(=O)N1)C(=O)N1CCC[C@H]1C(=O)NC(=O)C1CCCc2ccccc21` (stereo partly drawn), the Ki in data set [5] came to 22.4 µM. Moreover, the Retention time in data set [2] was 18.4 min.

In data set [1], `NC(=O)[C@@H]1CCCN1C(=O)[C@@H]1CCCN1C(=O)[C@@H]1CCC(=O)N1` ([pGlu]-Pro-Pro-NH2) displayed an inhibition of 3%.

With `COc1ccc(NC(=O)[C@@H]2CCCN2C(=O)[C@H](CC(N)=O)NC(=O)[C@@H]2CCC(=O)N2)cc1`, the Retention time in data set [2] was 15 min.

Turning to `NC(=O)CC[C@H](NC(=O)[C@@H]1CCC(=O)N1)C(=O)N1CCC[C@H]1C(N)=O` ([pGlu]-Gln-Pro-NH2), the inhibition result in data set [6] is “Active”. This molecule gave an inhibition in [1] of 83%.

Turning to `NC(=O)[C@@H]1CCCN1C(=O)[C@H](Cc1cccs1)NC(=O)[C@@H]1CCC(=O)N1` ([pGlu]-[2Thi]-Pro-NH2), the Vmax/Km in data set [4] amounted to 0.06 U/mg/µM. Besides, the Activity in data set [3] is 2.12 U/mg.

B1: Thyrotropin releasing hormone degrading enzyme (Sus scrofa), A0A287AP33 (protein)
chain: MALDGERGEQEEEKKKKKKKKKRKKKKEEEGAKKSSSPFVATMGENDAALRAGGRGLSDPWADSVGVRPRTTERHITVHKRLVLAFAVSIVALLAVTMLAVLLSLRFDECGASIPPGADGGPAGFPARGGNESLPGSSRRDHHAGGDSSQPGAGREDTPETPSAQPPSEEEQEQWQPWTQLRLSGHLKPLHYNLMLTAFMENFTFSGEVNVEIACRNATRYVVLHASRVAVEKVQVAEDRVAGAVPVAGFFLYPQTQVLVVVLNRTLDAQRNYNLKIIYNALIENELLGFFRSSYVLHGERRFLGVTQFSPTHARKAFPCFDEPIYKATFKISIKHQATYLSLSNMPVETSVFEEDGWVTDHFSQTPLMSTYYLAWAICNFTYRETTTKSGVVVRLYARPDAIRRGSGDYALHITKRLIEFYEDYFKVPYSLPKLDLLAVPKHPYAAMENWGLSIFVEQRILLDPSVSSISYLLDVTMVIVHEICHQWFGDLVTPVWWEDVWLKEGFAHYFEFVGTDYLYPGWNMEKQRFLTDVLHEVMLLDGLASSHPVSQEVLRATDIDRVFDWIAYKKGAALIRMLANFMGHSVFQRGLQDYLTIHKYGNAARNDLWNTLSEALKRNGKYVNIQEVMDQWTLQMGYPVITIFGNTTAENRIIITQQHFIYDISAKAKPHELQNSSYLWQIPLTIVVGNRSHVSSEAIIWVSNKTEHHRITSLNKGSWLLGNINQTGYFRVNYDLRNWRLLIDQLIRNHEVLSVSNRAGLIDDAFSLARAGYLPQNIPLEIIRYLSEEKDFLPWHAASRALYPLDKLLDRMEKYNVFNEYILKQVATTYIKLGWPKNNFNGSLVQASYQHEELRREVIMLACSFGNKHCHQQASTLISDWISSNRNRIPLNVRDIVYCTGVSLLDEDVWEFIWMKFHSTTAISEKKILLEALTCSDDRNLLNRLLNLSLNSEVVLDQDAIDVIIHVARNPHGRDLAWKFFRDKWKILNTRYGEALFMNSKLISGVTEFLNTEGELKELKNFMKSYDGVAAASFSRAVETVEANVRWKMLYQDELFQWLGKALRH
Broadly, the Km is the substrate concentration at which the rate is half of its maximum. Regarding B1, the Michaelis constant (Km) in [7] came to 55 µM; in data set [8], 311 µM; in data set [9], 3.1 µM; in data set [10] it was 15 µM; in data set [11], 34 µM; in data set [12], 35 µM. Also, the Vmax in data set [13] came to 1.64 U/mg; in [14] it was 4.43 U/mg; in data set [15], 0.11 U/mg; in data set [16] it was 0.67 U/mg; in [17] it was 2.19 U/mg; in data set [18] it was 2.63 U/mg.

The values are drawn from ChEMBL document CHEMBL3880382, “TRH-like peptide derivatives as inhibitors of the TRH-degrading ectoenzyme” (2010).
